The source made the active and inactive calls. The calls are words filed in the database; no cut-off is given here.
How the values were obtained:
Candida albicans [1] = test: Antifungal actvity against Candida albicans ATCC SC5314 infected in mouse assessed as reduction in fungal infection at 10 ug per 20 g, ip administered on day 2, 4, 6, 8, 10 and 12 and measured on day 14 in presence of naproxen; type: functional, organism-based; conditions: dose 10.0 µg, time 14.0 day
Cryptococcus neoformans = test: Antifungal activity against Cryptococcus neoformans ZKCC 2209 assessed as fungal growth inhibition measured after 72 hrs in presence of naproxen by double dilution method; type: functional
Mus musculus = species on record: Mus musculus; test: Immunostimulatory activity in mouse infected with Candida albicans ATCC SC5314 assessed as increase in CD8+ expression level in spleen in presence of naproxen by immunohistochemical analysis; type: functional, organism-based
[2] = Toxicity in mouse infected with Candida albicans assessed as ALT level in plasma at 10 ug per 20 g, ip administered on day 2, 4, 6, 8, 10 and 12 and measured on day 14 in presence of naproxen (reference value: 43.6 +/- 4.4 IU/L); type: organism-based; conditions: in vivo, 336 h, dose 10 µg, time 14 day
Candida albicans [3] = test: Antifungal activity against fluconazole- resistant Candida albicans 904 assessed as fungal growth inhibition measured after 72 hrs in presence of naproxen by double dilution method; type: functional
Candida albicans [4] = test: Antifungal activity against fluconazole- resistant Candida albicans 17# assessed as fungal growth inhibition measured after 72 hrs in presence of naproxen by double dilution method; type: functional
[5] = Toxicity in mouse infected with Candida albicans assessed as AST level in plasma at 10 ug per 20 g, ip administered on day 2, 4, 6, 8, 10 and 12 and measured on day 14 in presence of naproxen (reference value: 74.9 +/- 6.7 IU/L); type: organism-based; conditions: in vivo, 336 h, dose 10 µg, time 14 day
Candida tropicalis = test: Antifungal activity against Candida tropicalis ATCC 1369 assessed as fungal growth inhibition measured after 72 hrs in presence of naproxen by double dilution method; type: functional
Candida albicans [6] = test: Antifungal activity against fluconazole- resistant Candida albicans CaR assessed as fungal growth inhibition measured after 72 hrs in presence of naproxen by double dilution method; type: functional
Candida albicans [7] = test: Induction of morphological changes in Candida albicans ATCC SC5314 assessed as disappearance of nucleus measured for 48 to 72 hrs by transmission electron microscopic analysis; type: functional, organism-based; conditions: time 48-72 hrs
Candida albicans [8] = test: Induction of morphological changes in Candida albicans ATCC SC5314 assessed as edema cavitation measured for 48 to 72 hrs by transmission electron microscopic analysis; type: functional, organism-based; conditions: time 48-72 hrs

Structure (SMILES) | Activity (Candida albicans [1]) | MIC50 (Cryptococcus neoformans) [µg/mL] | Activity (Mus musculus) | Activity [2] [IU/L] | MIC50 (Candida albicans [3]) [µg/mL] | MIC50 (Candida albicans [4]) [µg/mL] | Activity [5] [IU/L] | MIC50 (Candida tropicalis) [µg/mL] | MIC50 (Candida albicans [6]) [µg/mL] | Activity (Candida albicans [7]) | Activity (Candida albicans [8])
OC(Cn1cncn1)(Cn1cncn1)c1ccc(F)cc1F [FLUCONAZOLE] | Active | 0.25 | Active | 42.6 | 2 | 4 | 76.4 | 0.5 | 2 | – | –
COc1ccc2cc([C@H](C)C(=O)NC(Cn3cncn3)C(=O)c3ccccc3)ccc2c1 (stereo partly specified) | – | – | – | – | – | – | – | – | – | Active | Active

Reference: ChEMBL document CHEMBL5113529, “Design, Synthesis, and Biological Evaluation of Dual-Target COX-2/CYP51 Inhibitors for the Treatment of Fungal Infectious Diseases” (J Med Chem, 2022)
